Data published in patent publication US12286435B2, “Compound having benzo seven-membered ring structure, preparation method therefor, and use thereof” (BIONNA (BEIJING) MEDICAL TECHNOLOGY CO., LTD., priority 2019, dated 2025).
Like-named read-outs stand apart in the source and are kept apart here.

Experiments:
[1] = molecular target: BRD4 BD2 protein (Homo sapiens (Human), UniProt O60885); assay: Fluorescence polarization binding affinity (Ki) with BRD4 BD2 protein
[2] = molecular target: BRD4 BD1 protein (Homo sapiens (Human), UniProt O60885); assay: Fluorescence polarization binding affinity (Ki) with BRD4 BD1 protein
[3] = fluorescence polarization, Ki calculated from IC50

Row | SMILES | Ki [1, 3] | Ki [2, 3] | Ki [1] | Ki [2]
1 | CCC(=O)N1CC=C(c2ccc3c(c2)C(Nc2cccc(Cl)c2)CCn2nnc(C)c2-3)CC1 (centres unmarked) [BH86, 1-(4-(7-((3-chlorophenyl)amino)-1-methyl-6,7-dihydro-5H-benzo[c][1,2,3]triazolo[1,5-a]azepin-9-yl)-3,6-dihydropyridin-1(2H)-yl)propan-1-one] | 6.43 nM | 9.51 nM | – | –
2 | Cc1nnn2c1-c1ccc(C3=CCN(C(C)C)CC3)cc1C(Nc1ccc(F)c(Cl)c1)CC2 (centres unmarked) [BI24, N-(3-chloro-4-fluorophenyl)-9-(1-isopropyl-1,2,3,6-tetrahydropyridin-4-yl)-1-methyl-6,7-dihydro-5H-benzo[c][1,2,3]triazolo[1,5-a]azepin-7-amine 2,2,2-trifluoroacetate] | 86.4 nM | 5410 nM | – | –
3 | Cc1nnn2c1-c1ccc(-c3cnn(C)c3)cc1C(Nc1ccccc1CCN(C)C)CC2 (centres unmarked) [LC99, N-(2-(2-(dimethylamino)ethyl)phenyl)-1-methyl-9-(1-methyl-1H-pyrazol-4-yl)-6,7-dihydro-5H-benzo[c][1,2,3]triazolo[1,5-a]azepin-7-amine] | 12.9 nM | 38.4 nM | – | –
4 | Cc1nnn2c1-c1ccc(C3=CCNCC3)cc1C(Nc1ccccc1O)CC2 (centres unmarked) [LC127, 2-((1-methyl-9-(1,2,3,6-tetrahydropyridin-4-yl)-6,7-dihydro-5H-benzo[c][1,2,3]triazolo[1,5-a]azepin-7-yl)amino)phenol 2,2,2-trifluoroacetate] | 41.5 nM | 793 nM | – | –
5 | Cc1nnn2c1-c1ccc(C3=CCNCC3)cc1C(Nc1cccc3[nH]ccc13)CC2 (centres unmarked) [WA78, 2,2,2-trifluoroacetate] | 19.8 nM | 281 nM | – | –
6 | Cc1nnn2c1-c1ccc(C3=CCN(C4CCC4)CC3)cc1C(Nc1cc(Cl)ccc1F)CC2 (centres unmarked) [BI26, N-(5-chloro-2-fluorophenyl)-9-(1-cyclobutyl-1,2,3,6-tetrahydropyridin-4-yl)-1-methyl-6,7-dihydro-5H-benzo[c][1,2,3]triazolo[1,5-a]azepin-7-amine 2,2,2-trifluoroacetate] | 45.4 nM | 861 nM | – | –
7 | Cc1nnn2c1-c1ccc(C3=CCNCC3)cc1C(Nc1cc(Cl)ccc1F)CC2 (centres unmarked) [LD08, N-(5-chloro-2-fluorophenyl)-1-methyl-9-(1,2,3,6-tetrahydropyridin-4-yl)-6,7-dihydro-5H-benzo[c][1,2,3]triazolo[1,5-a]azepin-7-amine 2,2,2-trifluoroacetate] | 62.3 nM | 1270 nM | – | –
8 | Cc1nnn2c1-c1ccc(C3=CCNCC3)cc1C(Nc1cccc(CO)c1)CC2 (centres unmarked) [RD21, (3-((1-methyl-9-(1,2,3,6-tetrahydropyridin-4-yl)-6,7-dihydro-5H-benzo[c][1,2,3]triazolo[1,5-a]azepin-7-yl)amino)phenyl)methanol 2,2,2-trifluoroacetate] | 90.4 nM | 1530 nM | – | –
9 | Cc1nnn2c1-c1ccc(C3=CCNCC3)cc1C(Nc1ccc(O)cc1)CC2 (centres unmarked) [LC117, 4-((1-methyl-9-(1,2,3,6-tetrahydropyridin-4-yl)-6,7-dihydro-5H-benzo[c][1,2,3]triazolo[1,5-a]azepin-7-yl)amino)phenol 2,2,2-trifluoroacetate] | 116 nM | 2370 nM | – | –
10 | Cc1nnn2c1-c1ccc(C3=CCN(C4CCCC4)CC3)cc1C(Nc1cccc(Cl)c1F)CC2 (centres unmarked) [RD179, N-(3-chloro-2-fluorophenyl)-9-(1-cyclopentyl-1,2,3,6-tetrahydropyridin-4-yl)-1-methyl-6,7-dihydro-5H-benzo[c][1,2,3]triazolol[1,5-a]azepin-7-amine 2,2,2-trifluoroacetate] | 32.6 nM | 2810 nM | – | –
11 | Cc1nnn2c1-c1ccc(C3=CCN(C(C)C)CC3)cc1C(Nc1cccc(S(C)(=O)=O)c1)CC2 (centres unmarked) [BI60, 9-(1-isopropyl-1,2,3,6-tetrahydropyridin-4-yl)-1-methyl-N-(3-(methylsulfonyl)phenyl)-6,7-dihydro-5H-benzo[c][1,2,3]triazolo[1,5-a]azepin-7-amine 2,2,2-trifluoroacetate] | 307 nM | 4740 nM | – | –
12 | COc1cccc(NC2CCn3nnc(C)c3-c3ccc(C4=CCN(C)CC4)cc32)c1 (centres unmarked) [BH23, N-(3-methoxyphenyl)-1-methyl-9-(1-methyl-1,2,3,6-tetrahydropyridin-4-yl)-6,7-dihydro-5H-benzo[c][1,2,3]triazolo[1,5-a]azepin-7-amine 2,2,2-trifluoroacetate] | 75.3 nM | 751 nM | – | –
13 | Cc1nnn2c1-c1ccc(-c3cnn(C)c3)cc1[C@H](Nc1cccc(Cl)c1)CC2 [RE124, (R)—N-(3-chlorophenyl)-1-methyl-9-(1-methyl-1H-pyrazol-4-yl)-6,7-dihydro-5H-benzo[c][1,2,3]triazolo[1,5-a]azepin-7-amine] | < 1 nM | 9.92 ± 3.36 nM | – | –
14 | Cc1nnn2c1-c1ccc(C3=CCNCC3)cc1C(Nc1ccc(OCCO)cc1)CC2 (centres unmarked) [LC133, 2-(4-((1-methyl-9-(1,2,3,6-tetrahydropyridin-4-yl)-6,7-dihydro-5H-benzo[c][1,2,3]triazolo[1,5-a]azepin-7-yl)amino)phenoxy)ethan-1-ol 2,2,2-trifluoroacetate] | 207 nM | 2190 nM | – | –
15 | Cc1nnn2c1-c1ccc(C3=CCN(C(=O)C4CC4)CC3)cc1C(Nc1cccc(Cl)c1)CC2 (centres unmarked) [BH123, (4-(7-((3-chlorophenyl)amino)-1-methyl-6,7-dihydro-5H-benzo[c][1,2,3]triazolo[1,5-a]azepin-9-yl)-3,6-dihydropyridin-1 (2H)-yl) (cyclopropyl)methanone] | 7.64 nM | 46.7 nM | – | –
16 | CCn1cc(-c2ccc3c(c2)C(Nc2ccc(Cl)cc2)CCc2onc(C)c2-3)cn1 (centres unmarked) [LA93, N-(4-chlorophenyl)-1-methyl-8-(1-ethyl-1H-pyrazol-4-yl)-5,6-dihydro-4H-benzo[6,7]cyclohepta[1,2-d]isoxazol-6-amine] | 46.7 nM | 76.3 nM | – | –
17 | Cc1nnn2c1-c1ccc(C3=CCNCC3)cc1C(Nc1ccc(C#N)cc1)CC2 (centres unmarked) [LC128, 4-((1-methyl-9-(1,2,3,6-tetrahydropyridin-4-yl)-6,7-dihydro-5H-benzo[c][1,2,3]triazolo[1,5-a]azepin-7-yl)amino)benzonitrile 2,2,2-trifluoroacetate] | 56.2 nM | 467 nM | – | –
18 | CCN1CC=C(c2ccc3c(c2)C(Nc2cccc(C#N)c2)CCn2nnc(C)c2-3)CC1 (centres unmarked) [BI37, 3-((9-(1-ethyl-1,2,3,6-tetrahydropyridin-4-yl)-1-methyl-6,7-dihydro-5H-benzo[c][1,2,3]triazolo[1,5-a]azepin-7-yl)amino)benzonitrile 2,2,2-trifluoroacetate] | 196 nM | 2570 nM | – | –
19 | Cc1nnn2c1-c1ccc(C3=CCNCC3)cc1C(Nc1cccc(CC(=O)O)c1)CC2 (centres unmarked) [LC87, 2-(3-((1-methyl-9-(1,2,3,6-tetrahydropyridin-4-yl)-6,7-dihydro-5H-benzo[c][1,2,3]triazolo[1,5-a]azepin-7-yl)amino)phenyl) acetic acid] | 142 nM | > 20000 nM | – | –
20 | CCN1CC=C(c2ccc3c(c2)C(Nc2ccc(F)c(Cl)c2)CCn2nnc(C)c2-3)CC1 (centres unmarked) [RD121, N-(3-chloro-4-fluorophenyl)-9-(1-ethyl-1,2,3,6-tetrahydropyridin-4-yl)-1-methyl-6,7-dihydro-5H-benzo[c][1,2,3]triazolo[1,5-a]azepin-7-amine 2,2,2-trifluoroacetate] | – | – | 31.8 nM | 788 nM
21 | COc1ccc2c(c1)C(Nc1ccc(Cl)cc1)CCc1onc(C)c1-2 (centres unmarked) [FA02, N-(4-chlorophenyl)-8-methoxy-1-methyl-5,6-dihydro-4H-benzo[6,7]cyclohepta[1,2-d]isoxazol-6-amine] | 37.1 nM | 58.3 nM | – | –
22 | CCN1CC=C(c2ccc3c(c2)C(Nc2cc(Cl)ccc2F)CCn2nnc(C)c2-3)CC1 (centres unmarked) [RD123, N-(5-chloro-2-fluorophenyl)-9-(1-ethyl-1,2,3,6-tetrahydropyridin-4-yl)-1-methyl-6,7-dihydro-5H-benzo[c][1,2,3]triazolo[1,5-a]azepin-7-amine 2,2,2-trifluoroacetate] | – | – | 40.8 nM | 1090 nM
23 | CC(=O)N1CC=C(c2ccc3c(c2)C(Nc2cccc(Cl)c2F)CCn2nnc(C)c2-3)CC1 (centres unmarked) [RD180, 1-(4-(7-((3-chloro-2-fluoro-phenyl)amino)-1-methyl-6,7-dihydro-5H-benzo[c][1,2,3]triazolo[1,5-a]azepin-9-yl)-3,6-dihydropyridin-1 (2H)-yl)ethan-1-one] | 12.1 nM | 52 nM | – | –
24 | COc1ccc(NC2CCn3nnc(C)c3-c3ccc(C4=CCNCC4)cc32)cc1 (centres unmarked) [LC160, N-(4-methoxyphenyl)-1-methyl-9-(1,2,3,6-tetrahydropyridin-4-yl)-6,7-dihydro-5H-benzo[c][1,2,3]triazolo[1,5-a]azepin-7-amine 2,2,2-trifluoroacetate] | 114 nM | 2270 nM | – | –
25 | Cc1nnn2c1-c1ccc(C3=CCN(C4CCCC4)CC3)cc1C(Nc1cccc(S(C)(=O)=O)c1)CC2 (centres unmarked) [BI55, 9-(1-cyclopentyl-1,2,3,6-tetrahydropyridin-4-yl)-1-methyl-N-(3-(methylsulfonyl)phenyl)-6,7-dihydro-5H-benzo[c][1,2,3]triazolo[1,5-a]azepin-7-amine 2,2,2-trifluoroacetate] | 116 nM | 3100 nM | – | –
26 | Cc1nnn2c1-c1ccc(C3=CCN(C4CCCC4)CC3)cc1C(Nc1cccc(Cl)c1)CC2 (centres unmarked) [BH107, N-(3-chlorophenyl)-9-(1-cyclopentyl-1,2,3,6-tetrahydropyridin-4-yl)-1-methyl-6,7-dihydro-5H-benzo[c][1,2,3]triazolo[1,5-a]azepin-7-amine 2,2,2-trifluoroacetate] | 17.6 nM | 1740 nM | – | –
27 | CNC(=O)Cc1ccccc1NC1CCn2nnc(C)c2-c2ccc(C3=CCNCC3)cc21 (centres unmarked) [LC132] | 55.9 nM | 724 nM | – | –
28 | Cc1nnn2c1-c1ccc(C3=CCNC3)cc1C(Nc1cccc(Cl)c1)CC2 (centres unmarked) [BJ179, N-(3-chlorophenyl)-9-(2,5-dihydro-1H-pyrrol-3-yl)-1-methyl-6,7-dihydro-5H-benzo[c][1,2,3]triazolo[1,5-a]azepin-7-amine 2,2,2-trifluoroacetate] | 25.9 nM | 436 nM | – | –
